The test system of experiment [1] is HL-60. As to the kind of experiment: Concentration required for endonucleolytic DNA cleavage in HL-60 cells. In kind it is functional, cell-based. The conditions noted are these: Homo sapiens.
The test system of experiment [2] is HL-60. The experiment in a line: In vitro antiproliferative activity against HL-60 myeloid leukemia HL-60 cells in culture. The experiment is classed as functional, cell-based. The conditions noted are these: Homo sapiens.

The IC50 is the concentration that gives 50% inhibition. A lower IC50 goes with greater potency in that assay. In turn, `C=C1C(=O)O[C@H](CCc2ccc(OC)cc2)[C@H]1C` showed a Concentration in experiment [1] of 5 µM. In experiment [2], this compound showed an IC50 of 4 µM.

For the origin of these results see ChEMBL document CHEMBL1136051, “Synthesis and antiproliferative activity of a new compound containing an alpha-methylene-gamma-lactone group” (J Med Chem, 2002).
